Measurements taken from patent US20220175768A1, “FGFR TYROSINE KINASE INHIBITORS FOR THE TREATMENT OF UROTHELIAL CARCINOMA” (Janssen Pharmaceutica NV, priority 2019, published 2022).

Experiments:
[1] = Pharmacokinetics in specific populations; assay type: in vivo, human; conditions: age 21-88 years, sex, race, body weight 36-132 kg, mild or moderate renal impairment, mild hepatic impairment
serum phosphate = assay: Pharmacodynamics: serum phosphate level; assay type: in vivo, human; conditions: consequence of FGFR inhibition
Description: To manage phosphate elevation, phosphate binders were permitted. Avoid concomitant use with agents that can alter serum phosphate levels before the initial dose increase period based on serum phosphate levels.

[2] = 187 patients with cancer; large effect i.e. >20 ms

COc1cc(OC)cc(N(CCNC(C)C)c2ccc3ncc(-c4cnn(C)c4)nc3c2)c1 [erdafitinib, N-(3,5-dimethoxy-phenyl)-N′-(1-methylethyl)-N-[3-(1-methyl-1H-pyrazol-4-yl)quinoxalin-6-yl]ethane-1,2-diamine]
Trends in pharmacokinetics in specific populations [1]: No clinically meaningful trends
Effect on serum phosphate level (serum phosphate): increased serum phosphate level
Effect on the QTc interval [2]: no large effect
